Results on 5 substances are retold here after patent publication US20080292619A1, “Pharmaceutical Composition Containing Meltrin Antagonist” (MOCHIDA PHARMACEUTICAL CO., LTD., priority 2004, published 2008).

In the oligonucleotide strings, read from the 5' end, every base follows the letter of its sugar. An asterisk marks phosphorothioate; unmarked linkages are phosphodiester. Other units and linkages are bracketed, terminal groups are in braces. A string of capitals states the bases alone. d = 2'-deoxy (DNA)

Format in all cases: cell-based
In series [1] the test system is meltrin α mRNA. In words: Quantitative determination of human meltrin α expression in human preadipocyte (real time PCR). Conditions: antisense DNA transfected human preadipocyte; sense oligo DNA group = 100%. As to the method:
First, the human preadipocyte for use in the assay (human preadipocytes-sq donor10547, POIETICS #PT-5001, Lot.3F0242, Sanko Junyaku Co., Ltd.) which had been adjusted to a cell concentration of 1×10^5 cells/mL was added to a 96 well culture plate at 1×10^2 to 1×10^4 cells/well/100 μL, and cultured overnight. In the meanwhile, the culture medium in which preadipocytes had been suspended at 1×10^5 cells/mL was added to a 6 well plate at 1600 μL/well, and growth medium was also added to the plate at 400 μL/well, and the cells were cultured overnight. 1 μg to 50 μg of synthetic oligo DNA was added to serum free adipocyte growth medium or serum. free D-MEM, and after adding 3 μL of FuGENE6 per 1 μg of oligo DNA, the mediums were allowed to stand at room temperature for 15 to 45 minutes. From the 6 well plate described above, 400 μL/well of the medium was removed and 400 μL/well of the culture medium containing the oligo DNA was added, and the plate was incubated at 37° C. for 18 hours in the presence of 5% CO2 to evaluate the level of expression of meltrin in Example 15. […]
After removing PBS from the plate, 0.5 mL/well of Trizol Reagent (Invitrogen) was added to the plate. […] After drying, the precipitate was dissolved in water not containing RNase, and absorbance at a wavelength of 260 nm was measured to determine the RNA concentration (1OD=40 μg/mL). […]
In general terms: Real-time PCR tracks product formation cycle by cycle.

Series [2] concerns human preadipocyte. In words: Adipocyte proliferation and differentiation, neutral fat accumulation (Adipo Red). Conditions: 5 days after differentiation stimulation; compared to the sense sequence group. As to the method:
The differentiation medium was prepared by adding supplement kit PGM SingleQuots, #PT-9500, Lot.08101163 (Sanko Junyaku Co., Ltd.) to 100 mL of growth medium. 50 μL of the supernatant was removed from the 96 well plate prepared in Example 12, and 50 μL of the siRNA or the antisense oligonucleotide prepared in the differentiation medium was added, and incubation was conducted in a CO2 incubator for 5 days to 15 days.
The amount of neutral fat accumulated in the adipocyte was determined by fluorometry using Adipo Red stain.
After taking the 96 well plate out of the CO2 incubator, the plate was allowed to stand until it cooled to room temperature. The plate was centrifuged at 300 g (1200 rpm) for 10 minutes at room temperature to remove the medium. Next, the plate was gently washed with 200 μL/well of PBS (Sigma), and 200 μL/well of PBS was added to the well.
Next, 5 μL/well of Adipo Red Assay Reagent (Adipo Red, Cat. #PT-7009, Lot.3F0497, A Cambrex Company) was added, and the plate was allowed to stand at room temperature for at least 10 minutes to thereby stain the neutral fat that had accumulated in the adipocyte. The fluorescence intensity was measured in a fluorometer at an excitation wavelength of 485 nm and an emission wavelength of 535 nm to thereby determine the fat accumulation.
According to the method of Example 15, M82463 was added to the human preadipocyte incubation system at a concentration of 0.3 to 10 μg/mL so that the final concentration of the DMSO was 0.2%. As a control, a group having only the DMSO added to a final concentration of 0.2% was used.
After preparation of the antibody to the concentration of 0.100 mg/mL with physiological saline, 9 volumes of adipocyte differentiation medium was added to 1 volume of the antibody solution, and the solution was sterilized by filtering through a filter having a diameter of 0.22 μm (MILLEX-GV 0.22 μm Filter unit, 3slgv013SL, Lot. R2NN83622, MILLIPORE). […]

Series [3] concerns human meltrin α RNA. In words: Suppression of human meltrin α expression by antisense compound in RD cell (real time PCR). To be noted: RD cell. Put shortly: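 RD cells transfected with heat-denatured antisense oligodeoxynucleotide plus Lipofectin in Opti-MEM for 4 h at 37° C, then cultured 18 h. Meltrin α RNA quantified by TaqMan RT-PCR against plasmid standard curve, GAPDH-corrected; suppression vs untreated cells, rated +/++/+++ for ≥30/50/70%.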

For series [4], the system named is human preadipocyte. In words: Effect of antisense compound on adipocyte proliferation and differentiation (Adipo Red). How it is done:
First, human preadipocyte (Human Preadipocytes-sq POIETICS #PT-5020, Sanko Junyaku Co., Ltd.) was suspended in growth medium (#PT-8200, Sanko Junyaku Co., Ltd.), and after adding the suspension to a 96 well culture plate at 1×10^4 cells/well/100 μL, the cells were cultured overnight at 37° C. in the presence of 5% CO2.
The preadipocyte was cultured overnight, and after washing the preadipocyte twice with serum-free DMEM, Opti-MEM was added at 80 μL/well.
Gene transfection reagent Lipofectin was diluted with Opti-MEM to 20 μg/mL, and the dilution was allowed to stand at room temperature for 30 minutes. Next, the antisense oligodeoxynucleotide synthesized as described above was heated at 90° C. for 3 minutes, and after quenching on ice, diluted with Opti-MEM to a concentration 10 times higher than the final concentration. Equal amounts of the Lipofectin in Opti-MEM and the antisense oligodeoxynucleotide in Opti-MEM were mixed, and the mixture was incubated at room temperature for 15 minutes and added to 96 well plate at 20 μL/well. After incubating at 37° C. for 4 hours in the presence of 5% CO2, it was used for examination as described below.
The differentiation medium was prepared by using growth medium (#PT-8200, Sanko Junyaku Co., Ltd.) and supplement kit (PGM Single Quots, #PT-9500, Sanko Junyaku Co., Ltd.) according to the instruction of the kit. Next, the culture supernatant containing the Lipofectin was removed from the 96 well plate prepared in the above (2), and the plate was washed twice with serum-free DMEM, and the differentiation medium prepared as described above was added at 100 μL/well. The plate was then incubated at 37° C. for 5 days to 15 days in the presence of 5% CO2.
Accumulation of the neutral fat in the adipocyte was determined by fluorometry using Adipo Red stain.
After taking the 96 well plate out of the CO2 incubator, the plate was allowed to stand until it reached room temperature. The plate was centrifuged at 300 g (1200 rpm) for 10 minutes at room temperature to remove the medium. Next, after gently washing with PBS (SIGMA) at 200 μL/well, PBS was added to the well at 200 μL/well. Next, Adipo Red Assay Reagent (Adipo Red, Cat. #PT-7009, Lot.3F0497, A Cambrex Company) was added at 5 μL/well, and the plate was allowed to stand at room temperature for at least 10 minutes to thereby stain the neutral fat accumulated in the adipocyte. The fat accumulation was determined by measuring fluorescence intensity in a fluorometer at an excitation wavelength of 485 nm and an emission wavelength of 535 nm.
The suppression rate of the adipocyte differentiation was calculated by converting the fluorescence intensity of the well transfected with the antisense compound in relation to the fluorescence intensity of the well without transfection with the antisense compound which was assumed as 100%. The result was rated “+” when the suppression rate was at least 25%, “++” when the suppression rate was at least 50%, and “+++” when the suppression rate was at least 75%.

In the case of “HS0307A: phosphorothioate antisense sequence CACGGGCAGCGGGCGCGCTGCCAT near the 5′ end of the coding region of human meltrin α (antisense dC*dA*dC*dG*dG*dG*dC*dA*dG*dC*dG*dG*dG*dC*dG*dC*dG*dC*dT*dG*dC*dC*dA*dT)”, in series [1], the “suppression of level of expression of the meltrin α” value is reported as “about 70%”. In addition, the “accumulation of the neutral fat in the preadipocyte” value in series [2] is recorded as “suppressed to a greater degree”.

In the case of “H136 + 19: ctgagggacattcaggccgt (CTGAGGGACATTCAGGCCGT; antisense; DNA, all phosphorothioate, methylation of C not given here)”, the “suppression rate of expression, 50 nM” value in series [3] (50 nM, corrected by GAPDH) is on record as “+++ (“+++” when the suppression rate was at least 70%)”. Besides, in series [4], the “Score (suppressing the human adipocyte differentiation)” value is recorded as “+ (“+” when the suppression rate was at least 25%)”.

For “5 (dG*dT*dT*dT*dG*dG*dC*dT*dT*dA*dC*dA*dG*dG*dT*dC*dC*dC*dC*dT) [compound 5]”, the “Supression of expression, 50 nM” value in series [3] (50 nM) is “++ (“++” when the suppression rate was at least 50%)”. Besides, the “Supression of adipose differentiation 300 nM” value in series [4] (300 nM, human preadipocyte) is “++ (“++” when the suppression rate was at least 50%)”.

For the substance “H133 + 2: tcggtgggtaggaatctggc (TCGGTGGGTAGGAATCTGGC; antisense; DNA, all phosphorothioate, methylation of C not given here)”, the “suppression rate of expression, 50 nM” value in series [3] (50 nM, corrected by GAPDH) is on record as “++ (“++” when the suppression rate was at least 50%)”. The “Score (suppressing the human adipocyte differentiation)” value in series [4] is listed as “+ (“+” when the suppression rate was at least 25%)”.

With “H005: tgcgtcgcgcgcgcgccgtt (TGCGTCGCGCGCGCGCCGTT; antisense; DNA, all phosphorothioate, methylation of C not given here)”, the “suppression rate of expression, 50 nM” value in series [3] (50 nM, corrected by GAPDH) is “++ (“++” when the suppression rate was at least 50%)”. Also, the “suppression rate of expression, 200 nM” value in series [3] (200 nM, corrected by GAPDH) is reported as “++ (“++” when the suppression rate was at least 50%)”. Moreover, the “Score (suppressing the human adipocyte differentiation)” value in series [4] is “++ (“++” when the suppression rate was at least 50%)”.
